{"source": "patent US20140288025A1", "about": "“FATTY ACID ANTIVIRAL CONJUGATES AND THEIR USES” (Catabasis Pharmaceuticals, Inc., priority 2013, published 2014)", "assay_type_in_all_cases": "cell-based", "key": {"[1]": {"system": "HCV Con 1 subgenomic replicon", "assay": "HCV replicon assay (Huh-7 GS4.1 cells, NS4A ELISA)", "conditions": "Hepatitis C virus, Huh-7 GS4.1 replicon cells, 72 hours", "description": "The HCV replicon assay was carried out in the same manner described in WO 2010/018140, WO 2011/123586, Okuse et al Antivir. Res. 2005, 65, p. 23, Blight et al Science 2000, 290, p. 1972, Korba and Gerin Antivir. Res. 1992, 19, p. 55). Huh-7 cells containing HCV Con 1 subgenomic replicon (GS4.1 cells) were grown in Dulbecco's Modified Eagle Medium (DMEM) supplemented with 10% fetal bovine serum (FBS), 2 mM L-glutamine, 110 mg/L sodium pyruvate, 1× non-essential amino acids, 100 U/mL penicillin-streptomycin and 0.5 mg/mL G418 (Invitrogen). For dose-response testing, the cells were seeded in 96-well plates at 7.5×10^3 cells/well in a volume of […] and incubated at 37° C./5% CO2. […] The cells were incubated in the presence of compounds for 72 hours after which they are monitored for expression of the NS4A protein by enzyme-linked immunosorbent assay (ELISA). […] The reaction was stopped after 30 minutes with 2 N H2SO4 and the absorbance was read at 492 nm using a Sunrise Tecan spectrophotometer. EC50 values were determined from the % inhibition vs concentration data using a sigmoidal non-linear regression analysis based on four parameters with Tecan Magellan software. For cytotoxicity evaluation, GS4.1 cells are treated with compounds as described and cellular viability can be monitored using a Cell Titer 96 AQueous One Solution Cell Proliferation Assay (Promega). […]"}, "[2]": {"system": "NF-κB", "assay": "NF-κB luciferase reporter assay in RAW 264.7 macrophages", "conditions": "for IC50: Mus musculus", "description": "RAW 264.7 cells stably expressing a 3×NFkB response element-drive luciferase reporter were seeded into 96 well plates in sera-free medium (Optimem) 18 hours prior to compound application. Compounds of the invention were prepared by first making 100 mM stock solutions in EtOH. […] Cells were then stimulated with 200 ng/ml LPS or vehicle control for 3 hours in the presence of the compounds of the invention. A set of six vehicles was left unstimulated with LPS in order to measure the assay floor. AlamarBlue viability dye (Invitrogen) was added to cells simultaneously with the delivery of LPS (final AlamarBlue concentration of 10%). After the 3 h incubation period with LPS, cell viability was measured by reading fluorescence (excitation 550 nm, emission 595 nm) with a Perkin Elmer Victor V plate reader. Then cell media was aspirated from each well. Luciferase signal was then developed by addition of the Britelite Plus reagent (Perkin Elmer). Luciferase activity was measured with the Perkin Elmer Victor V plate reader. NE-κB activity was expressed as a percent of the vehicle control wells (stimulated with LPS). Compounds were tested at 6 dose point titrations in triplicate to determine IC50 values."}, "[3]": {"system": "HIV-1IIIB strain", "assay": "HIV-1 cytoprotection assay (CEM-SS cells, MTS dye reduction)", "conditions": "for IC50 HIV-1IIIB strain (nM): CEM-SS cells, 6 days, MTS", "description": "Cytoprotection assays are commonly used for evaluating the antiviral efficacy of test compounds against a variety of viruses in different cell lines. […] Briefly, virus and cells are mixed in the presence of test compound and incubated for 6 days. […] Each assay plate contains cell control wells (cells only), virus control wells (cells plus virus), compound toxicity control wells (cells plus compound only), compound colorimetric control wells (compound only), as well as experimental wells (compound plus cells plus virus). Cytoprotection and compound cytotoxicity are assessed by MTS (CellTiter®96 Reagent, Promega, Madison Wis.) dye reduction. […] Each assay includes the HIV reverse transcriptase inhibitor AZT as a positive control.\nCEM-SS cells were obtained from the NIH AIDS Research and Reference Reagent Program and are routinely passaged in T-75 flasks using standard tissue culture techniques based on the specifications provided by the supplier. On the day preceding the assay, the cells are split 1:2 to assure they are in an exponential growth phase at the time of infection. Total cell number and percent viability determinations are performed using a hemacytometer and trypan blue exclusion. […] The cells are re-suspended at 5×10^4 cells/mL in tissue culture medium and added to the drug-containing 96-well microtiter plates in a volume of 50 μl.\nThe viruses used for this assay are CXCR4-tropic laboratory virus strains. The most commonly used strains are HIV-1RF and HIV-1IIIB (each obtained from the NIH AIDS Research and Reference Reagent Program). For each assay, a pre-titered aliquot of virus is removed from the freezer (−80° C.) and allowed to thaw slowly to room temperature in a biological safety cabinet. The virus is re-suspended and diluted into tissue culture medium such that the amount of virus added to each well in a volume of 50 μl is the amount determined to give between 85 to 95% cell killing at 6 days post-infection.\nEach plate contains cell control wells (cells only), virus control wells (cells plus virus), drug cytotoxicity wells (cells plus drug only), drug colorimetric control wells (drug only), background control wells (media only), as well as experimental wells (drug plus cells plus virus). Samples are evaluated for antiviral efficacy with triplicate measurements using 6 concentrations at half-log dilutions (12 concentrations can also be performed) in order to determine IC50 values and with duplicate measurements to determine cellular cytotoxicity, if detectable.\n100% EtOH is added to the compounds of the invention such that the EtOH stock concentration is 50 mM. […] (VWR Ultrasonics Cleaner, Model #B8500A-DTH with “Sonics Power” set to HI); e) The 1:2 serial dilutions of the 1 mM 10× stock solution with FBS/2% EtOH are prepared such that the concentrations of the 10× stock solutions are 1 mM, 0.5 mM, 0.25 mM, etc., in FBS with 2% EtOH. Medium is aspirated off cells and replaced with serum free medium."}, "[4]": {"system": "HBV", "assay": "HBV assay, extracellular HBV DNA in HepG2 2.2.15 cells", "conditions": "Hepatitis B virus, read-out: EC90 against HBV", "description": "Extracellular HBV DNA analysis was carried out using the protocols outlined in Innaimo et al, Antimicrobial Agents and Chemotherapy 1997, 41, p. 1444-1448 and Korba and Milman Antiviral Research 1991, 15, p. 217-228. HepG2 2.2.15 cells were maintained in RPMI 1640 supplemented with 2 mM L-glutamine, 50 U of penicillin per mL, 50 μg of streptomycin per mL, 500 μg of G418 per mL, and 5% fetal bovine serum. Stock solutions of the test compounds were prepared according to the procedures outlined in example 3. HepG2 2.2.15 cells were plated at a density of 5×10^5 cells per well on 12-well Biocoat collagen-coated plates (Collaborative Biosciences, Beford, Mass.) and were maintained in a confluent state for 2 to 3 days before being overlaid with 1 mL of medium spiked with the antiviral compound. Compound-containing medium was changed daily for 9 days. On day 10, the media were collected and clarified by pelleting the cellular debris with a 5-min microcentrifuge spin at 16,000×g. Supernatants were processed for HBV DNA by the alkaline lysis method. Released HBV DNA was immobilized on a Magnagraph nylon membrane (Micron Separatations, Inc., Westborough, Mass.) by sing a dot blot manifold full-length HBV genome template excised from plasmid pTHBV-1 (American Type Culture Collection, Rockville, Md.) and ^32P-radiolabeled to a specific activity of 2×10^9 cpm/μg by using a random primer kit (Life Technologies, Grand Island, N.Y.). Quantification was performed on a Storm 860 phosphorimager (Molecular Dynamics, Sunnyvale, Calif.). All drug concentrations were tested in duplicate or triplicate, with antiviral effects being scored as reductions in the amount of HBV DNA present in the medium relative to that in untreated controls after the 10-day treatment period. Using the assay, the following EC90 values against HBV were obtained: […]"}, "[5]": {"conditions": "RAW264.7, 3 h, read-out: NF-kB inhibitory activity IC50 μM"}}, "note": "Read-outs that look alike come from different tables or passages of the source.", "data": [{"smiles": "CC/C=C\\C/C=C\\C/C=C\\C/C=C\\C/C=C\\C/C=C\\CCC(=O)NCCNP(=O)(OC[C@H]1O[C@@H](n2ccc(=O)[nH]c2=O)[C@](C)(F)[C@@H]1O)Oc1ccccc1", "note": "(stereo partly drawn) [II-1, ((2R,3R,4R,5R)-5-(2,4-dioxo-3,4-dihydropyrimidin-1(2H)-yl)-4-fluoro-3-hydroxy-4-methyltetrahydrofuran-2-yl)methyl phenyl (2-((4Z,7Z,10Z,13Z,16Z,19Z)-docosa-4,7,10,13,16,19-hexaenamido)ethyl) phosphoramidate]", "values": [{"measurement": "EC50", "setting": "[1]", "value": 780, "unit": "nM"}]}, {"smiles": "CC/C=C\\C/C=C\\C/C=C\\C/C=C\\C/C=C\\C/C=C\\CCC(=O)NCCNC(=O)OC[C@@H]1O[C@H](n2ccc(N)nc2=O)CS1", "note": "[Example V-21, ((2R,5S)-5-(4-amino-2-oxopyrimidin-1(2H)-yl)-1,3-oxathiolan-2-yl)methyl (2-((4Z,7Z,10Z,13Z,16Z,19Z)-docosa-4,7,10,13,16,19-hexaenamido)ethyl)carbamate]", "values": [{"measurement": "IC50", "setting": "[2]; [5]", "value": "50 to 200", "unit": "µM"}, {"measurement": "IC50 HIV-1IIIB strain (nM)", "setting": "[3]", "value": "+ ++"}, {"measurement": "EC90", "setting": "[4]; HepG2 2.2.15, 240 h", "value": 79, "unit": "nM"}]}, {"smiles": "CC/C=C\\C/C=C\\C/C=C\\C/C=C\\C/C=C\\C/C=C\\CCC(=O)Nc1ccn([C@@H]2CS[C@H](CO)O2)c(=O)n1", "note": "[Example V-18, (4Z,7Z,10Z,13Z,16Z,19Z)—N-(1-((2R,5S)-2-(hydroxymethyl)-1,3-oxathiolan-5-yl)-2-oxo-1,2-dihydropyrimidin-4-yl)docosa-4,7,10,13,16,19-hexaenamide]", "values": [{"measurement": "IC50", "setting": "[2]; RAW264.7, RAW 264.7 reporter cells, 200 ng/ml LPS, 3 hours, read-out: NF-kB inhibitory activity IC50", "value": "> 200", "unit": "µM"}, {"measurement": "IC50 HIV-1IIIB strain (nM)", "setting": "[3]", "value": "+ ++"}, {"measurement": "EC90", "setting": "[4]; 240 h, HepG2 2.2.15 cells, extracellular HBV DNA, 10-day treatment", "value": 81, "unit": "nM"}]}, {"smiles": "CC/C=C\\C/C=C\\C/C=C\\C/C=C\\C/C=C\\CCCC(=O)NCCNP(=O)(OC[C@@H]1OC(n2ccc(N)nc2=O)CS1)Oc1ccccc1", "note": "(stereo partly drawn) [II-68]", "values": [{"measurement": "IC50", "setting": "[2]; [5]", "value": "50 to 200", "unit": "µM"}, {"measurement": "EC90", "setting": "[4]; HepG2 2.2.15, 240 h", "value": 82, "unit": "nM"}]}, {"smiles": "C=C1[C@H](COP(=O)(NCCNC(=O)CCC/C=C\\C/C=C\\C/C=C\\C/C=C\\C/C=C\\CC)OC)[C@@H](O)C[C@@H]1n1cnc2c(=O)nc(N)[nH]c21", "note": "(stereo partly drawn) [II-48, ((1R,3S,5S)-3-(2-amino-6-oxo-3H-purin-9(6H)-yl)-5-hydroxy-2-methylenecyclopentyl)methyl methyl (2-((5Z,8Z,11Z,14Z,17Z)-icosa-5,8,11,14,17-pentaenamido)ethyl)phosphoramidate]", "values": [{"measurement": "IC50", "setting": "[2]; [5]", "value": "50 to 200", "unit": "µM"}, {"measurement": "EC90", "setting": "[4]; HepG2 2.2.15, 240 h", "value": 7, "unit": "nM"}]}, {"smiles": "CC/C=C\\C/C=C\\C/C=C\\C/C=C\\C/C=C\\C/C=C\\CCC(=O)NCCNP(=O)(OC[C@@H]1O[C@H](n2ccc(N)nc2=O)CS1)Oc1ccccc1", "note": "(stereo partly drawn) [II-67, ((2R,5S)-5-(4-amino-2-oxopyrimidin-1(2H)-yl)-1,3-oxathiolan-2-yl)methyl phenyl (2-((4Z,7Z,10Z,13Z,16Z,19Z)-docosa-4,7,10,13,16,19-hexaenamido)ethyl)phosphoramidate]", "values": [{"measurement": "NF-kB inhibitory activity IC50 μM", "setting": "[2]; RAW 264.7 reporter cells, 200 ng/ml LPS, 3 hours", "value": "+ +"}, {"measurement": "IC50", "setting": "[3]; Human immunodeficiency virus 1, IIIB, CEM-SS, 144 h, read-out: IC50 HIV-1IIIB strain (nM)", "value": "< 100", "unit": "nM"}, {"measurement": "EC90", "setting": "[4]; HepG2 2.2.15, 240 h", "value": 75, "unit": "nM"}]}, {"smiles": "C=C1[C@H](COP(=O)(NCCNC(=O)CC/C=C\\C/C=C\\C/C=C\\C/C=C\\C/C=C\\C/C=C\\CC)OC)[C@@H](O)C[C@@H]1n1cnc2c(=O)nc(N)[nH]c21", "note": "(stereo partly drawn) [II-46, ((1R,3S,5S)-3-(2-amino-6-oxo-3H-purin-9(6H)-yl)-5-hydroxy-2-methylenecyclopentyl)methyl methyl (2-((4Z,7Z,10Z,13Z,16Z,19Z)-docosa-4,7,10,13,16,19-hexaenamido)ethyl)phosphoramidate]", "values": [{"measurement": "EC90", "setting": "[4]; HepG2 2.2.15, 240 h", "value": 7, "unit": "nM"}]}]}
